Calls of active or inactive are those of the source. Rule as the data show it, for most assays here: actives have a measured Kd and inactives only a lower limit.
Tests used:
[1] = target: Tyrosine-protein kinase Fyn (Homo sapiens, UniProt P06241)
[2] = target: T1, Mitogen-activated protein kinase kinase kinase 2 (Homo sapiens, UniProt Q9Y2U5)
T1 sequence (Q9Y2U5 whole entry): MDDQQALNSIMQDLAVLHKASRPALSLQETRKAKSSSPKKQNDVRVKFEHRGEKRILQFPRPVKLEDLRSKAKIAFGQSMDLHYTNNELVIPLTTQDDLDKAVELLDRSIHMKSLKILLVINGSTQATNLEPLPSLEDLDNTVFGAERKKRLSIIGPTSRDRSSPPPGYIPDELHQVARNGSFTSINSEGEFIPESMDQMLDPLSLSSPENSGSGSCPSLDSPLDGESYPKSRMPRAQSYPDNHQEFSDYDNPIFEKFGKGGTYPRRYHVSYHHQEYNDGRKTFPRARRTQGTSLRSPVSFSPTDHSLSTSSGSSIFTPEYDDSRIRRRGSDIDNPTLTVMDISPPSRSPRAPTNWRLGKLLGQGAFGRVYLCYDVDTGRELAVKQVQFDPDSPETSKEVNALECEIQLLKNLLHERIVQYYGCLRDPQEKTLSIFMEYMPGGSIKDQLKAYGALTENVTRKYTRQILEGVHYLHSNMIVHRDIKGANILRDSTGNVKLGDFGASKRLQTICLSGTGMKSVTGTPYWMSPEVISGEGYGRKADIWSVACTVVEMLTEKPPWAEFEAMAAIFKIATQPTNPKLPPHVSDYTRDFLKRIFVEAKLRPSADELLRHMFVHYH

[3] = target: RAC-alpha serine/threonine-protein kinase (Homo sapiens, UniProt P31749)
[4] = target: Serine/threonine-protein kinase/endoribonuclease IRE2 (Homo sapiens, UniProt Q76MJ5)
[5] = target: T2, Dual specificity mitogen-activated protein kinase kinase 5 (Homo sapiens, UniProt Q13163)
T2 sequence (Q13163 whole entry): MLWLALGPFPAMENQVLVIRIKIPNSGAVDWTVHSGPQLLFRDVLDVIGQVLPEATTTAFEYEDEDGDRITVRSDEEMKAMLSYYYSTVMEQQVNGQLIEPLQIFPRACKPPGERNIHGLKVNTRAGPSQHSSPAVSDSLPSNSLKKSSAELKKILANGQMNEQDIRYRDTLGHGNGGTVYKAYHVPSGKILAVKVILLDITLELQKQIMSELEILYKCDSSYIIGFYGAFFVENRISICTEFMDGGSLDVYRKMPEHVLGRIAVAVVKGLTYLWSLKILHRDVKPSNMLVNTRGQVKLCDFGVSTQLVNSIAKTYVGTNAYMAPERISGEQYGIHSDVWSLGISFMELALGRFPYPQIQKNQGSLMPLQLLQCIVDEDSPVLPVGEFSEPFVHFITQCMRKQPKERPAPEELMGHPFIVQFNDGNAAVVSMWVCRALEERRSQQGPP

[6] = target: T3, Phosphorylase b kinase gamma catalytic chain, liver/testis isoform (Homo sapiens, UniProt P15735)
T3 sequence (P15735 whole entry): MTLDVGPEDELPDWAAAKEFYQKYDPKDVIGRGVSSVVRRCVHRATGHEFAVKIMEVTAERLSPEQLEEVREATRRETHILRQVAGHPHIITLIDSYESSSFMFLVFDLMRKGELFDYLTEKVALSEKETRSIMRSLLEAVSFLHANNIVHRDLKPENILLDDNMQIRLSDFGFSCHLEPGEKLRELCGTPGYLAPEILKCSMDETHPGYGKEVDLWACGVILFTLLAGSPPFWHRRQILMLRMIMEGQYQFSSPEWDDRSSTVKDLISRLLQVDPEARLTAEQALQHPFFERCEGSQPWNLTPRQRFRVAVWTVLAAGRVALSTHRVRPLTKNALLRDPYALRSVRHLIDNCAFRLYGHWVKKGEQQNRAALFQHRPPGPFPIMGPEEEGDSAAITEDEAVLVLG

[7] = target: T4, Heme oxygenase 2 (Homo sapiens, UniProt P30519)
T4 sequence (P30519 whole entry): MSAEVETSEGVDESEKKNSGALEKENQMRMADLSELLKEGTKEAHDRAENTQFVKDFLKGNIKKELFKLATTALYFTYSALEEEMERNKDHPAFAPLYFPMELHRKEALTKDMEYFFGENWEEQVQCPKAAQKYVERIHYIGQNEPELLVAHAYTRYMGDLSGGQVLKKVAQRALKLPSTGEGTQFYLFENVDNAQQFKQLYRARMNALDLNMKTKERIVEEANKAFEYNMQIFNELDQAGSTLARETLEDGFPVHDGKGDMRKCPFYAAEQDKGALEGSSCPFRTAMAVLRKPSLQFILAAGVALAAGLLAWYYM

[8] = target: Interleukin-1 receptor-associated kinase 1 (Homo sapiens, UniProt P51617)
[9] = target: T5, ATP-dependent RNA helicase DDX1 (Homo sapiens, UniProt Q92499)
T5 sequence (Q92499 whole entry): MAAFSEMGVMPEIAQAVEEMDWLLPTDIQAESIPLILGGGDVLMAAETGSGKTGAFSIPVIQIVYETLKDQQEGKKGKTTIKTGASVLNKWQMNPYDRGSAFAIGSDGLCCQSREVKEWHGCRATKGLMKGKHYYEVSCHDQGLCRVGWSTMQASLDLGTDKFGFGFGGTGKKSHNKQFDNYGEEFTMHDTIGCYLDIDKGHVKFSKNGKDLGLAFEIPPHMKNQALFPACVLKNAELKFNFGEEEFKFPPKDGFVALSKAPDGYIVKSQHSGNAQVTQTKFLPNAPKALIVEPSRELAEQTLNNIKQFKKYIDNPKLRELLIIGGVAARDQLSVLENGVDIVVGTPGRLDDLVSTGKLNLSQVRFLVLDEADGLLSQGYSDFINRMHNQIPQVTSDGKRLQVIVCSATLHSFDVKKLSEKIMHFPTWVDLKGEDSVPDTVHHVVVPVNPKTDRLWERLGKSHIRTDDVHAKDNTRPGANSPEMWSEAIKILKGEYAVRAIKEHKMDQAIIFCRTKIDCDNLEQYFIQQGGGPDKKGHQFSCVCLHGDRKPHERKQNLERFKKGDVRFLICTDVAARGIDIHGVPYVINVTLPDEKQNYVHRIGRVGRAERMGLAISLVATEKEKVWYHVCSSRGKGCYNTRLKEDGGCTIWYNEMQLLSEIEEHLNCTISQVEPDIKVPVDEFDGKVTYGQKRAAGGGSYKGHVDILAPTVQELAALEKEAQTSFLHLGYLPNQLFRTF
Also: in the data inactive means no Kd found up to 30 µM.

Sequence of Tyrosine-protein kinase Fyn (P06241 whole entry): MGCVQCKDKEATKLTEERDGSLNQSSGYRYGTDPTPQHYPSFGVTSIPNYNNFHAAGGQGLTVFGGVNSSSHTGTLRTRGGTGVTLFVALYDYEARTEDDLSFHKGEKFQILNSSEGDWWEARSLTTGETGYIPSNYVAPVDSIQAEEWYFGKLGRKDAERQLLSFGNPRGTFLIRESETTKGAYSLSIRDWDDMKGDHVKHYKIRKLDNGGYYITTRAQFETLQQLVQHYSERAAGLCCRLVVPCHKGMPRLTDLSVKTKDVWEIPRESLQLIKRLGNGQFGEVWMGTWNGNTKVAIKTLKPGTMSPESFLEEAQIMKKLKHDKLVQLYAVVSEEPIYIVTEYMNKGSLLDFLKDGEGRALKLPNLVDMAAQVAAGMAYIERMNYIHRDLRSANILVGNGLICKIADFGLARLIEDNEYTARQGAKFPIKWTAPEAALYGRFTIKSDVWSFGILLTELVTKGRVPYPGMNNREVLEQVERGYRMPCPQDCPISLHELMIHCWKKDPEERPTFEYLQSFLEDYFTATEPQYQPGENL
Sequence of Interleukin-1 receptor-associated kinase 1 (P51617 whole entry): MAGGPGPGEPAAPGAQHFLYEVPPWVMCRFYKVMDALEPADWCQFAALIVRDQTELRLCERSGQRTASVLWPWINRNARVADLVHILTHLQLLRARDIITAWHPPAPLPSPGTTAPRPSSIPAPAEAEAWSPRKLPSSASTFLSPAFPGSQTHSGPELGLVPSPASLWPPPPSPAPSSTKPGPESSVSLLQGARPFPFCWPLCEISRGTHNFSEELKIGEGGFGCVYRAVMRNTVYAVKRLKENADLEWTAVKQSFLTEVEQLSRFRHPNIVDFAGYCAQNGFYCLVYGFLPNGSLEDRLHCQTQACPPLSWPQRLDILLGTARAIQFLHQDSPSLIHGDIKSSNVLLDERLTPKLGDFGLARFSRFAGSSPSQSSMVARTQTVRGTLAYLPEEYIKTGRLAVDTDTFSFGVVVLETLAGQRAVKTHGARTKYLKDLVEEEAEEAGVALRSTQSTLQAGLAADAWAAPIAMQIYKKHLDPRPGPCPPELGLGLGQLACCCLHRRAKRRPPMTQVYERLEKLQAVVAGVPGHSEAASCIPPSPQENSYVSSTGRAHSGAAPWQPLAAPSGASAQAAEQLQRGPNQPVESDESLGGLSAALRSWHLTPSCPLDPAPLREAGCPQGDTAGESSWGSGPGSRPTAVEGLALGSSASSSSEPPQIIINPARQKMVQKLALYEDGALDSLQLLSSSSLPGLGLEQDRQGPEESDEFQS
Sequence of Serine/threonine-protein kinase/endoribonuclease IRE2 (Q76MJ5 whole entry): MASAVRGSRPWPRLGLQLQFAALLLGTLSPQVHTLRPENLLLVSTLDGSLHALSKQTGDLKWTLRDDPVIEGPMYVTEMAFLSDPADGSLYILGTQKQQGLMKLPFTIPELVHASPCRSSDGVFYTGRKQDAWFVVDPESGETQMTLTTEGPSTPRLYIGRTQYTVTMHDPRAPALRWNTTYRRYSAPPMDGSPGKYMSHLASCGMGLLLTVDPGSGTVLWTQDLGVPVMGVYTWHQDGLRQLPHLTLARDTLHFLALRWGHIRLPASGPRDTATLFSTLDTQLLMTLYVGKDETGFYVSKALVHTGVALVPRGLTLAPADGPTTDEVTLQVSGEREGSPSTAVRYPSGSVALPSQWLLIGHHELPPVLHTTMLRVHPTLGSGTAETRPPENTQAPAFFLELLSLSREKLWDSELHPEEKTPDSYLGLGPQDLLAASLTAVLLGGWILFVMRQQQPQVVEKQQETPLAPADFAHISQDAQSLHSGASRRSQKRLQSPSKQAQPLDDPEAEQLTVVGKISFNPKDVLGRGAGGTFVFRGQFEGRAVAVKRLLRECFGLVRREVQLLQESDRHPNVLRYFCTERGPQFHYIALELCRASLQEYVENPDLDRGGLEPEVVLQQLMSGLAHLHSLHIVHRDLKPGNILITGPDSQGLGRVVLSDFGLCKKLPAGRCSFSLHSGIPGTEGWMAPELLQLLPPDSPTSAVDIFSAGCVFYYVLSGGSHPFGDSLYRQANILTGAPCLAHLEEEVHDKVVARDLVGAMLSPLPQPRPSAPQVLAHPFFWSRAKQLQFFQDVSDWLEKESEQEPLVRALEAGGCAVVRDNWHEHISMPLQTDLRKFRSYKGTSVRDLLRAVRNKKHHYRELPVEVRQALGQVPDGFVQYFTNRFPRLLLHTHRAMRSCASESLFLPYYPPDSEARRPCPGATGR
Sequence of RAC-alpha serine/threonine-protein kinase (P31749 whole entry): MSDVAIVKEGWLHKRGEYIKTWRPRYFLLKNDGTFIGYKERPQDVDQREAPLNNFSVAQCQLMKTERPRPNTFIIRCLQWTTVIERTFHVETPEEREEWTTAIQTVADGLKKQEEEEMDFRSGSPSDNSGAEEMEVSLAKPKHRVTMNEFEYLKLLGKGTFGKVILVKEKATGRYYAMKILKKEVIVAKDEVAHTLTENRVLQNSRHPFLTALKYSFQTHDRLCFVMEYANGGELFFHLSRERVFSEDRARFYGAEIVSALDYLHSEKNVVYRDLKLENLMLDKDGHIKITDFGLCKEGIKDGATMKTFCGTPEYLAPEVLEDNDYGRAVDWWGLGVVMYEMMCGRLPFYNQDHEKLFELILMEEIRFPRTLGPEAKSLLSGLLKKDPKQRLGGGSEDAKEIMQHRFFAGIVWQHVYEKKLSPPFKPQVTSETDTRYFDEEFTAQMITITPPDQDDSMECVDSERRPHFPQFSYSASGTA

Structure (SMILES) | Kd [1] | Kd [2] | Kd [3] | Kd [4] | Kd [5] | Kd [6] | Kd [7] | Kd [8] | Kd [9]
C[C@H]1CNCCCN1S(=O)(=O)c1cccc2cncc(F)c12 | > 30 µM (inactive) | > 30 µM (inactive) | > 30 µM (inactive) | > 30 µM (inactive) | > 30 µM (inactive) | > 30 µM (inactive) | > 30 µM (inactive) | > 30 µM (inactive) | > 30 µM (inactive)
CCNC(=O)C#Cc1ccc2c(c1)NC(=O)/C2=C(\Nc1ccc(CN(C)C)cc1)c1ccccc1 | 0.187 µM (active) | > 30 µM (inactive) | > 30 µM (inactive) | > 30 µM (inactive) | 0.177 µM (active) | > 30 µM (inactive) | > 30 µM (inactive) | > 30 µM (inactive) | > 30 µM (inactive)
COCc1c(-c2ccc(NC(=O)Nc3cc(C(F)(F)F)ccc3F)c(F)c2)c2c(N)ncnn2c1CN1CCOCC1 | > 30 µM (inactive) | > 30 µM (inactive) | > 30 µM (inactive) | > 30 µM (inactive) | > 30 µM (inactive) | > 30 µM (inactive) | > 30 µM (inactive) | > 30 µM (inactive) | > 30 µM (inactive)
Nc1ncnc2c1c(-c1cccc(OCc3ccccc3)c1)cn2[C@H]1C[C@@H](CN2CCC2)C1 [AEW-541] | > 30 µM (inactive) | > 30 µM (inactive) | > 30 µM (inactive) | > 30 µM (inactive) | 0.146 µM (active) | > 30 µM (inactive) | > 30 µM (inactive) | > 30 µM (inactive) | > 30 µM (inactive)
COc1cc([C@@H]2c3cc4c(cc3[C@H](O)[C@H]3COC(=O)[C@@H]23)OCO4)cc(OC)c1OC [AXL-1717] | > 30 µM (inactive) | > 30 µM (inactive) | > 30 µM (inactive) | > 30 µM (inactive) | > 30 µM (inactive) | > 30 µM (inactive) | > 30 µM (inactive) | > 30 µM (inactive) | > 30 µM (inactive)
NC(=O)Nc1cc(-c2cccc(F)c2)sc1C(=O)N[C@H]1CCCNC1 [AZD-7762] | 0.284 µM (active) | > 30 µM (inactive) | > 30 µM (inactive) | > 30 µM (inactive) | 0.147 µM (active) | > 30 µM (inactive) | > 30 µM (inactive) | > 30 µM (inactive) | > 30 µM (inactive)
Cc1cc(C(=O)NOCCO)c(Nc2ccc(I)cc2F)n(C)c1=O [AZD-8330] | > 30 µM (inactive) | > 30 µM (inactive) | > 30 µM (inactive) | > 30 µM (inactive) | 2.66 µM (active) | > 30 µM (inactive) | > 30 µM (inactive) | > 30 µM (inactive) | > 30 µM (inactive)
Cn1cnc2c(F)c(Nc3ccc(Br)cc3F)c(C(=O)NOCCO)cc21 [BINIMETINIB] | > 30 µM (inactive) | > 30 µM (inactive) | > 30 µM (inactive) | > 30 µM (inactive) | > 30 µM (inactive) | > 30 µM (inactive) | > 30 µM (inactive) | > 30 µM (inactive) | > 30 µM (inactive)
CCn1c(C(=O)N(C2CC2)C2CC2)cc2c3c(ncn3C)c(Nc3cc(C)n(C)n3)nc21 [BMS-911543] | > 30 µM (inactive) | > 30 µM (inactive) | > 30 µM (inactive) | > 30 µM (inactive) | > 30 µM (inactive) | > 30 µM (inactive) | > 30 µM (inactive) | > 30 µM (inactive) | > 30 µM (inactive)
Cc1cc(Nc2ncc(Cl)c(Nc3ccccc3S(=O)(=O)C(C)C)n2)c(OC(C)C)cc1C1CCNCC1 [CERITINIB] | > 30 µM (inactive) | > 30 µM (inactive) | > 30 µM (inactive) | > 30 µM (inactive) | > 30 µM (inactive) | > 30 µM (inactive) | > 30 µM (inactive) | > 30 µM (inactive) | > 30 µM (inactive)

Now from value to compound:

Kd [1] | Kd [2] | Kd [3] | Kd [4] | Kd [5] | Kd [6] | Kd [7] | Kd [8] | Kd [9] | Structure (SMILES)
0.005 µM | > 30 µM (inactive) | > 30 µM (inactive) | > 30 µM (inactive) | > 30 µM (inactive) | > 30 µM (inactive) | > 30 µM (inactive) | > 30 µM (inactive) | > 30 µM (inactive) | C=CC(=O)N1CCC[C@H](n2c(=O)n(-c3ccc(Oc4ccccc4)cc3)c3c(N)ncnc32)C1
> 30 µM (inactive) | > 30 µM (inactive) | > 30 µM (inactive) | > 30 µM (inactive) | > 30 µM (inactive) | > 30 µM (inactive) | > 30 µM (inactive) | > 30 µM (inactive) | > 30 µM (inactive) | Cc1nc(NC(=O)N2CCC[C@H]2C(N)=O)sc1-c1ccnc(C(C)(C)C(F)(F)F)c1 [ALPELISIB]
> 30 µM (inactive) | 1.97 µM (active) | > 30 µM (inactive) | > 30 µM (inactive) | > 30 µM (inactive) | > 30 µM (inactive) | > 30 µM (inactive) | > 30 µM (inactive) | > 30 µM (inactive) | Cc1csc(-c2nnc(Nc3ccc(Oc4ncccc4-c4ccnc(N)n4)cc3)c3ccccc23)c1 [AMG-900]
> 30 µM (inactive) | > 30 µM (inactive) | > 30 µM (inactive) | > 30 µM (inactive) | > 30 µM (inactive) | > 30 µM (inactive) | > 30 µM (inactive) | > 30 µM (inactive) | > 30 µM (inactive) | C=CC(=O)Nc1cc2c(Nc3ccc(F)c(Cl)c3)ncnc2cc1C#CC(C)(C)N1CCN(C)CC1 [AV-412 FREE BASE]
> 30 µM (inactive) | > 30 µM (inactive) | > 30 µM (inactive) | > 30 µM (inactive) | > 30 µM (inactive) | > 30 µM (inactive) | > 30 µM (inactive) | > 30 µM (inactive) | > 30 µM (inactive) | COc1cc2ncnc(Oc3cccc(NC(=O)Nc4cc(C(C)(C)C(F)(F)F)on4)c3)c2cc1OC [CEP-32496]
